Consider 13 molecules from ChEMBL document CHEMBL4616639, “Simplistic perylene-related compounds as inhibitors of tick-borne encephalitis virus reproduction” (Bioorg Med Chem Lett, 2020).

Some results are limits rather than exact numbers.

A short description of data set [1]: Cytotoxicity against porcine PEK cells assessed as reduction in cell viability after 24 hrs by microscopic method. The format is cell-based, Sus scrofa. The following applies: pig.
A short description of data set [2]: Cytotoxicity against porcine PEK cells assessed as reduction in cell viability after 7 days by microscopic method. The format is cell-based, Sus scrofa. The following applies: pig.
The test system of data set [3] is Tick-borne encephalitis virus. In words: microbe, parasite or virus in culture. The format is functional, organism-based. The following applies: PEK.
A short description of data set [4]: Selectivity index, ratio of CC50 for porcine PEK cells assessed as reduction in cell viability after 24 hrs by microscopic method to EC50 for TBEV Absettarov infected in porcine PEK cells assessed as plaque reduction preincubated for 1 hr followed by overlaying with 1.26% methylcellulose and measured after 6 days by gentian violet staining-based assay. The format is toxicity. The following applies: pig, read-out: Ratio CC50/EC50.

A word on the CC50: it is the concentration at which the toxic effect on the cells reaches its halfway point. `O=c1[nH]c(=O)n([C@@H]2O[C@H](CO)[C@@H](O)[C@@H]2O)cc1C#Cc1ccc2c3cccc4cccc(c5cccc1c52)c43`: the CC50 at 24 h in data set [1] was greater than 50 µM. The CC50 at 168 h in data set [2] was greater than 50 µM.
Usually EC50 stands for the midpoint of the concentration-response curve. Higher therefore signals a need for much substance. In the case of `OC[C@H]1O[C@@H](n2cnc3c(NCc4c5ccccc5cc5ccccc45)ncnc32)[C@H](O)[C@@H]1O`, the CC50 at 24 h in data set [1] was greater than 50 µM. The EC50 in data set [3] was found to be 22000 nM. Besides, the CC50 at 168 h in data set [2] is greater than 50 µM.
For the molecule `O=c1[nH]c(=O)n([C@@H]2O[C@H](CO)[C@@H](O)[C@H]2O)cc1C#Cc1ccc2c3cccc4cccc(c5cccc1c52)c43`, the CC50 at 24 h in data set [1] is greater than 100 µM. Besides, in data set [3], the EC50 was 7.7 nM. For the same molecule, the CC50 at 168 h in data set [2] is greater than 100 µM.
Turning to `O=c1[nH]cc(C#Cc2ccc3c4cccc5cccc(c6cccc2c63)c54)c(=O)[nH]1`, in data set [1], the CC50 at 24 h is greater than 100 µM. The molecule also registered an EC50 in data set [3] of 8 nM. The CC50 at 168 h in data set [2] amounted to 37 µM.
As for `CO[C@@H]1[C@H](O)[C@@H](CO)O[C@H]1n1cc(C#Cc2ccc3c4cccc5cccc(c6cccc2c63)c54)c(=O)[nH]c1=O`, the CC50 at 24 h in data set [1] was greater than 50 µM. In data set [3], this molecule gave an EC50 of 6 nM. For the same molecule, the CC50 at 168 h in data set [2] was 38 µM.
For `CN(C)c1ccc(C#Cc2ccc3c4cccc5cccc(c6cccc2c63)c54)cc1` the same measures were greater than 100 µM, 25 nM and greater than 100 µM.
Take `O=C(O)c1ccc(-c2ccc3c4cccc5cccc(c6cccc2c63)c54)s1`: the CC50 at 24 h in data set [1] is greater than 70 µM. Besides, a half-maximal response in data set [3] (EC50) required 1.6 nM. For the same molecule, the CC50 at 168 h in data set [2] is 26 µM. The selectivity ratio at 24 h in data set [4] is greater than 30000.
Consider `CC(=O)Nc1ccc(C#Cc2ccc3c4cccc5cccc(c6cccc2c63)c54)cc1`, for which the CC50 at 24 h in data set [1] was greater than 100 µM. Moreover, the EC50 in data set [3] amounted to 89 nM. In addition, the CC50 at 168 h in data set [2] is greater than 100 µM.
Take `CCCCNC(=O)c1ccc(-c2ccc3c4cccc5cccc(c6cccc2c63)c54)s1`: in data set [1], the CC50 at 24 h is greater than 100 µM. For the same molecule, it took 3.9 nM to reach a half-maximal effect in data set [3] (EC50). Also, the CC50 at 168 h in data set [2] is greater than 100 µM.
Take `O=C(NCCCCO)c1ccc(-c2ccc3c4cccc5cccc(c6cccc2c63)c54)s1`: the CC50 at 24 h in data set [1] was greater than 70 µM. The EC50 in data set [3] worked out at 9 nM. Further, the CC50 at 168 h in data set [2] is greater than 70 µM.
For the molecule `O=C(O)c1ccc2c3cccc4cccc(c5cccc1c52)c43`, the CC50 at 24 h in data set [1] is greater than 50 µM. For the same molecule, it took 37 nM to reach a half-maximal effect in data set [3] (EC50). Further, the CC50 at 168 h in data set [2] was 37 µM.
`O=C(c1ccc(-c2ccc3c4cccc5cccc(c6cccc2c63)c54)s1)N(CCO)CCO`: the CC50 at 24 h in data set [1] was greater than 70 µM. In data set [3], it took 15 nM to reach a half-maximal effect (EC50). Further, the CC50 at 168 h in data set [2] is greater than 70 µM.
On to `Cc1cc(O)c2c3c4c(cc(O)c13)C(C)(C)C(=O)c1c(O)cc(O)c(c1-4)C2=O` [HELIOMYCIN], for which the CC50 at 24 h in data set [1] is 3.7 µM. Further, the EC50 in data set [3] is 150 nM. Further, the CC50 at 168 h in data set [2] came out at 3.7 µM.
